Data on ten molecules can be found in ChEMBL document CHEMBL1151573, “Cyclic homopentapeptides 3. Synthetic modifications to the capreomycins and tuberactinomycins: Compounds with activity against methicillin-resistant Staphylococcus aureus and vancomycin-resistant enterococci” (1997).

≈ marks a conversion by molar mass, not a printed value. Numbered stars: 1 amine (or outer) side, 2 acyl side, 3 side chain; on linkers, the order of the positions; unused ones are H or OH. Bridge positions count the residues as written; N and C are the ends. Square brackets hold non-standard residues; d marks the D form. Side chains are listed from the residue outwards. Peptide text beside a SMILES is read from it. * marks the point of attachment. ξ: configuration not given here. NH(4-cHex-phenyl) = c1cc(C2CCCCC2)ccc1N*; X1 = NC1=NCCC([C@H](N[*:1])C(=O)[*:2])N1; X2 = N=C1NCCC([C@H](N[*:1])C(=O)[*:2])N1; ΔAla(Z-3-ureido) = NC(=O)N/C=C(\N)C(=O)O; ΔDap(Z) = O=C(/C(=C/N[*:3])N[*:1])[*:2]; β3hR = N=C(N)NCCC[C@H](N)CC(=O)O; β3hOrn = NCCC[C@H](N)CC(=O)*; ξβ3hOrn = NCCCC(N)CC(=O)*; Dap = NC[C@H](N)C(=O)O; X3 = NCC[C@H](O)C(=O)*; CO = O=C([*:1])[*:2]; ξDap = NCC(N)C(=O)O Where only a bound is given, the exact number is not on record here.

The subject of one test is Staphylococcus aureus. The test can be described thus: Antibacterial activity against Staphylococcus aureus (erythromycin- resistant, methicillin-resistant, ciprofloxacin- resistant) was determined. Type of test: functional.
Test [1] in a line: Antibacterial activity against Enterococcus faecium (vancomycin-resistant, erythromycin-resistant, ciprofloxacin-resistant). Type of test: functional.
Test [2] is described as follows: Antibacterial activity against Enterococcus faecalis (vancomycin-resistant, methicillin-resistant, ciprofloxacin-resistant). Type of test: functional, erythromycin faecalis.

The MIC is the smallest concentration in the dilution series that meets the test's criterion for growth inhibition. Low readings indicate inhibition by little substance, high ones a need for much substance.

In the case of `NCC[C@@H](O)[C@H](N)CC(=O)NC1CNC(=O)[C@@H](C2CCN=C(N)N2)NC(=O)/C(=C/Nc2ccc(Cl)c(Cl)c2)NC(=O)[C@@H](CO)NC(=O)[C@@H](CO)NC1=O` (stereo not given in full), the minimal inhibitory concentration (MIC) came to 12.5 µg/mL (≈ 15.9 µM) in the test on Staphylococcus aureus, 25 µg/mL (≈ 31.7 µM) in test [1] and 50 µg/mL (≈ 63.5 µM) in test [2].

For the molecule `NCCCNCCC(=O)NC1CNC(=O)[C@@H](C2CCN=C(N)N2)NC(=O)/C(=C/Nc2ccc(Cl)c(Cl)c2)NC(=O)[C@@H](CO)NC(=O)[C@@H](CO)NC1=O` (stereo not given in full), the MIC (against Staphylococcus aureus; in test [1]; in test [2]) was 50 µg/mL (≈ 64.8 µM) in each case.

`C[C@@H]1NC(=O)[C@@H](N)CNC(=O)[C@H](C2CCNC(=N)N2)NC(=O)/C(=C/NC(N)=O)NC(=O)[C@H](CNC(=O)CC(N)CCCN)NC1=O.N=C1NCCC([C@@H]2NC(=O)/C(=C/NC(N)=O)NC(=O)[C@H](CNC(=O)CC(N)CCCN)NC(=O)[C@H](CO)NC(=O)[C@@H](N)CNC2=O)N1` (stereo partly drawn) [CAPREOMYCIN] (H-[Dap]S[Dap](ξβ3hOrn)[ΔAla(Z-3-ureido)][X2]; lactam 1-C): the MIC in the test on Staphylococcus aureus is 100 µg/mL; in test [1] it was over 1000 µg/mL; in test [2], over 1000 µg/mL.

Regarding `NC(N)=NCCC[C@H](N)CC(=O)NC[C@@H]1NC(=O)[C@H](CO)NC(=O)C(N)CNC(=O)[C@H](C2CCN=C(N)N2)NC(=O)/C(=C/NC(=O)Nc2ccc(C3CCCCC3)cc2)NC1=O` (stereo partly drawn) (H-[ξDap]S[Dap](β3hR)[ΔDap(Z)]([CO-NH(4-cHex-phenyl)])[X1]; lactam 1-C), the MIC against Staphylococcus aureus came to 1.56 µg/mL (≈ 1.8 µM); in test [1], 3.12 µg/mL (≈ 3.59 µM); in test [2], 3.12 µg/mL (≈ 3.59 µM).

For `NCCC[C@H](N)CC(=O)NC[C@@H]1NC(=O)[C@H](CO)NC(=O)C(NC(=O)[C@@H](O)CCN)CNC(=O)[C@H](C2CCN=C(N)N2)NC(=O)/C(=C/NC(=O)Nc2ccc(C3CCCCC3)cc2)NC1=O` (stereo partly drawn) (X3-[ξDap]S[Dap](β3hOrn)[ΔDap(Z)]([CO-NH(4-cHex-phenyl)])[X1]; lactam 1-C), the MIC in the test on Staphylococcus aureus was 3.12 µg/mL (≈ 3.36 µM); in test [1], 6.25 µg/mL (≈ 6.73 µM); in test [2] it was 6.25 µg/mL (≈ 6.73 µM).

As for `CN[C@H](CC(C)C)C(=O)N[C@H]1C(=O)N[C@@H](CC(N)=O)C(=O)N[C@H]2C(=O)N[C@H]3C(=O)N[C@H](C(=O)N[C@H](C(=O)O)c4cc(O)cc(O)c4-c4cc3ccc4O)[C@H](O)c3ccc(c(Cl)c3)Oc3cc2cc(c3O[C@@H]2O[C@H](CO)[C@@H](O)[C@H](O)[C@H]2O[C@H]2C[C@](C)(N)[C@H](O)[C@H](C)O2)Oc2ccc(cc2Cl)[C@H]1O` [VANCOMYCIN], the minimum inhibitory concentration (MIC) is 0.78 µg/mL (≈ 0.538 µM) in the test on Staphylococcus aureus, over 100 µg/mL in test [1] and over 100 µg/mL in test [2].

Turning to `NCCC[C@H](N)CC(=O)NC[C@@H]1NC(=O)[C@H](CO)NC(=O)C(N)CNC(=O)[C@H](C2CCN=C(N)N2)NC(=O)/C(=C/NC(=O)Nc2ccc(C3CCCCC3)cc2)NC1=O` (stereo partly drawn) (H-[ξDap]S[Dap](β3hOrn)[ΔDap(Z)]([CO-NH(4-cHex-phenyl)])[X1]; lactam 1-C), the results for the minimal inhibitory concentration (MIC) (in the test on Staphylococcus aureus; in test [1]; in test [2]) were 1.56 µg/mL (≈ 1.89 µM), 3.12 µg/mL (≈ 3.77 µM) and 3.12 µg/mL (≈ 3.77 µM), respectively.

Regarding `NCC1NC(=O)[C@H](CO)NC(=O)[C@H](CO)NC(=O)C(NC(=O)Nc2ccc(C3CCCCC3)cc2)CNC(=O)[C@H](C2CCN=C(N)N2)NC1=O` (stereo not given in full) ({NH(4-cHex-phenyl)-CO}-[ξDap]SS[ξDap][X1]; lactam 1-C), the minimum inhibitory concentration (MIC) (in the test on Staphylococcus aureus; in test [1]; in test [2]) was over 100 µg/mL throughout.

Consider `O=C(N/N=C/c1cccc2c(OCc3ccc(OC(F)(F)F)cc3)cccc12)c1ccc(O)c(Cl)c1`, for which the MIC came to 25 µg/mL (≈ 48.6 µM) in the test on Staphylococcus aureus, 3.12 µg/mL (≈ 6.06 µM) in test [1] and 12.5 µg/mL (≈ 24.3 µM) in test [2].

As to `NC1=NC([C@H]2NC(=O)/C(=C/NC(=O)Nc3ccc(C4CCCCC4)cc3)NC(=O)[C@@H](CO)NC(=O)[C@@H](CO)NC(=O)C(NC(=O)Nc3ccc(Br)cc3)CNC2=O)CCN1` (stereo not given in full), the MIC against Staphylococcus aureus amounted to 12.5 µg/mL (≈ 13.9 µM); in test [1] it was 6.25 µg/mL (≈ 6.96 µM); in test [2], 12.5 µg/mL (≈ 13.9 µM).
